Measurements reported in ChEMBL document CHEMBL3885861, “Open TG-GATES”.

Organism: Rattus norvegicus
Experiment: Open TG-GATES - Regimen: Single
Format: toxicity, organism-based, Sprague-Dawley
Parameters: regimen Single, gender Male, age 6 weeks
Details: in vivo, po, route gavage; for Fbg / Hb / Ht / Lym / MCH / MCHC / MCV / Mono / Neu / PT / Plat / RBC / Ret / WBC / APTT / Bas / Eos: tissue Blood; for KIDNEY_L / KIDNEY_R / KIDNEY_TOTAL: tissue Kidney; for LIVER: tissue Liver; for A/G / ALP / ALT / AST / BUN / CRE / Ca / Cl / DBIL / GLC / IP / K / LDH / Na / PL / RALB / TBIL / TC / TG / TP / gamma-GTP: tissue Plasma
[1] = 300 mg/kg, 6 h, dose level Middle
[2] = 300 mg/kg, 9 h, dose level Middle
[3] = 300 mg/kg, 24 h, dose level Middle
[4] = 600 mg/kg, 3 h, dose level High
[5] = 600 mg/kg, 6 h, dose level High
[6] = 600 mg/kg, 9 h, dose level High
[7] = 600 mg/kg, 24 h, dose level High

## O=C1CN(/N=C/c2ccc([N+](=O)[O-])o2)C(=O)N1 [NITROFURANTOIN]
[1]
  Fbg: 235.8 mg/dL
  Hb: 13.2 g/dL
  Ht: 40%
  Lym: 70.6%
  MCH: 21.1 pg
  MCHC: 33%
  MCV: 63.9 fL
  Mono: 8%
  Neu: 20%
  PT: 11.7 s
  Plat: 127.7 x10_4/uL
  RBC: 625.2 x10_4/ul
  Ret: 7.7%
  WBC: 80.2 x10_2/uL
  KIDNEY_L: 0.9 g
  KIDNEY_R: 0.9 g
  KIDNEY_TOTAL: 1.9 g
  LIVER: 8.7 g
  A/G: 2.4
  ALP: 1363.8 IU/L
  ALT: 30.6 IU/L
  AST: 63.4 IU/L
  BUN: 10 mg/dL
  CRE: 0.5 mg/dL
  Ca: 11.5 mg/dL
  Cl: 103.8 meq/L
  DBIL: 0.004 mg/dL
  GLC: 192.4 mg/dL
  IP: 9.1 mg/dL
  K: 4.2 meq/L
  LDH: 69 IU/L
  Na: 137.2 meq/L
  PL: 158.2 mg/dL
  RALB: 4.1 g/dL
  TBIL: 0.036 mg/dL
  TC: 113 mg/dL
  TG: 36.2 mg/dL
  TP: 5.8 g/dL
  gamma-GTP: 0.2 IU/L
[2]
  TERMINAL_BW: 204.4 g
  APTT: 17 s
  Bas: 0%
  Eos: 1.2%
  Fbg: 234.8 mg/dL
  Hb: 13.3 g/dL
  Ht: 40.4%
  Lym: 70.6%
  MCH: 21.5 pg
  MCHC: 33%
  MCV: 64.9 fL
  Mono: 7.8%
  Neu: 20.6%
  PT: 11.7 s
  Plat: 116.3 x10_4/uL
  RBC: 622.6 x10_4/ul
  Ret: 6.4%
  WBC: 62.7 x10_2/uL
  KIDNEY_L: 0.9 g
  KIDNEY_R: 1 g
  KIDNEY_TOTAL: 1.9 g
  LIVER: 8.9 g
  A/G: 2.2
  ALP: 1126.4 IU/L
  ALT: 29.6 IU/L
  AST: 59.4 IU/L
  BUN: 12.4 mg/dL
  CRE: 0.4 mg/dL
  Ca: 11.4 mg/dL
  Cl: 106 meq/L
  DBIL: 0.008 mg/dL
  GLC: 210 mg/dL
  IP: 8.5 mg/dL
  K: 4.4 meq/L
  LDH: 61.8 IU/L
  Na: 138.6 meq/L
  PL: 143.8 mg/dL
  RALB: 4 g/dL
  TBIL: 0.038 mg/dL
  TC: 88.6 mg/dL
  TG: 62.8 mg/dL
  TP: 5.9 g/dL
  gamma-GTP: 1 IU/L
[3]
  TERMINAL_BW: 197.5 g
  APTT: 16 s
  Bas: 0%
  Eos: 1.6%
  Fbg: 229.2 mg/dL
  Hb: 13.8 g/dL
  Ht: 42.2%
  Lym: 82%
  MCH: 21.3 pg
  MCHC: 32.6%
  MCV: 65.3 fL
  Mono: 4.2%
  Neu: 12.2%
  PT: 11.6 s
  Plat: 128 x10_4/uL
  RBC: 647 x10_4/ul
  Ret: 6.2%
  WBC: 69.5 x10_2/uL
  KIDNEY_L: 1 g
  KIDNEY_R: 1 g
  KIDNEY_TOTAL: 2.1 g
  LIVER: 8.1 g
  A/G: 2.2
  ALP: 1379.2 IU/L
  ALT: 32.6 IU/L
  AST: 62.6 IU/L
  BUN: 15.4 mg/dL
  CRE: 0.4 mg/dL
  Ca: 11.1 mg/dL
  Cl: 107.8 meq/L
  DBIL: 0.01 mg/dL
  GLC: 194.2 mg/dL
  IP: 9.1 mg/dL
  K: 4.6 meq/L
  LDH: 73.4 IU/L
  Na: 140.8 meq/L
  PL: 150.8 mg/dL
  RALB: 3.8 g/dL
  TBIL: 0.028 mg/dL
  TC: 85.8 mg/dL
  TG: 118.6 mg/dL
  TP: 5.6 g/dL
  gamma-GTP: 0 IU/L
[4]
  TERMINAL_BW: 206.4 g
  APTT: 16.4 s
  Bas: 0%
  Eos: 1%
  Fbg: 233.2 mg/dL
  Hb: 13.2 g/dL
  Ht: 40.3%
  Lym: 71%
  MCH: 21.1 pg
  MCHC: 32.8%
  MCV: 64.4 fL
  Mono: 6.4%
  Neu: 22.4%
  PT: 12.1 s
  Plat: 121.3 x10_4/uL
  RBC: 625.6 x10_4/ul
  Ret: 7.8%
  WBC: 72.9 x10_2/uL
  KIDNEY_L: 0.9 g
  KIDNEY_R: 1 g
  KIDNEY_TOTAL: 1.9 g
  LIVER: 8.8 g
  A/G: 2.2
  ALP: 1226.6 IU/L
  ALT: 36 IU/L
  AST: 64.4 IU/L
  BUN: 12 mg/dL
  CRE: 0.5 mg/dL
  Ca: 11.6 mg/dL
  Cl: 104 meq/L
  DBIL: 0 mg/dL
  GLC: 198.4 mg/dL
  IP: 10.1 mg/dL
  K: 4 meq/L
  LDH: 91.2 IU/L
  Na: 139.6 meq/L
  PL: 146 mg/dL
  RALB: 4.1 g/dL
  TBIL: 0.034 mg/dL
  TC: 90.8 mg/dL
  TG: 54.8 mg/dL
  TP: 5.9 g/dL
  gamma-GTP: 1 IU/L
[5]
  TERMINAL_BW: 204.9 g
  APTT: 16 s
  Bas: 0%
  Eos: 1%
  Fbg: 228.8 mg/dL
  Hb: 13.7 g/dL
  Ht: 41.9%
  Lym: 74.8%
  MCH: 20.9 pg
  MCHC: 32.8%
  MCV: 63.9 fL
  Mono: 5.8%
  Neu: 18.6%
  PT: 11.8 s
  Plat: 115.3 x10_4/uL
  RBC: 656.6 x10_4/ul
  Ret: 7.9%
  WBC: 63.6 x10_2/uL
  KIDNEY_L: 0.9 g
  KIDNEY_R: 0.9 g
  KIDNEY_TOTAL: 1.9 g
  LIVER: 8.7 g
  A/G: 2.4
  ALP: 1281.4 IU/L
  ALT: 34.6 IU/L
  AST: 64.4 IU/L
  BUN: 12.6 mg/dL
  CRE: 0.5 mg/dL
  Ca: 11.5 mg/dL
  Cl: 104.2 meq/L
  DBIL: 0.008 mg/dL
  GLC: 193 mg/dL
  IP: 9 mg/dL
  K: 4.3 meq/L
  LDH: 74.4 IU/L
  Na: 137.8 meq/L
  PL: 144.2 mg/dL
  RALB: 4.1 g/dL
  TBIL: 0.04 mg/dL
  TC: 99.6 mg/dL
  TG: 33 mg/dL
  TP: 5.8 g/dL
  gamma-GTP: 0 IU/L
[6]
  TERMINAL_BW: 205.1 g
  APTT: 16.6 s
  Bas: 0%
  Eos: 1%
  Fbg: 229 mg/dL
  Hb: 13.5 g/dL
  Ht: 41.1%
  Lym: 71.4%
  MCH: 21.2 pg
  MCHC: 32.9%
  MCV: 64.6 fL
  Mono: 8%
  Neu: 19.8%
  PT: 11.7 s
  Plat: 127.2 x10_4/uL
  RBC: 636.6 x10_4/ul
  Ret: 7.2%
  WBC: 77 x10_2/uL
  KIDNEY_L: 1 g
  KIDNEY_R: 0.9 g
  KIDNEY_TOTAL: 1.9 g
  LIVER: 8.9 g
  A/G: 2.3
  ALP: 1100.8 IU/L
  ALT: 28.6 IU/L
  AST: 59.4 IU/L
  BUN: 12.6 mg/dL
  CRE: 0.4 mg/dL
  Ca: 11.3 mg/dL
  Cl: 104.2 meq/L
  DBIL: 0.01 mg/dL
  GLC: 194 mg/dL
  IP: 9.2 mg/dL
  K: 4.4 meq/L
  LDH: 82.6 IU/L
  Na: 137.4 meq/L
  PL: 160.4 mg/dL
  RALB: 4.1 g/dL
  TBIL: 0.042 mg/dL
  TC: 104.4 mg/dL
  TG: 46 mg/dL
  TP: 5.9 g/dL
  gamma-GTP: 1 IU/L
[7]
  TERMINAL_BW: 201.7 g
  APTT: 16.3 s
  Bas: 0%
  Eos: 1.6%
  Fbg: 238 mg/dL
  Hb: 13.7 g/dL
  Ht: 41.6%
  Lym: 78.8%
  MCH: 21.2 pg
  MCHC: 33%
  MCV: 64.4 fL
  Mono: 8.2%
  Neu: 11.8%
  PT: 11.8 s
  Plat: 131.1 x10_4/uL
  RBC: 647 x10_4/ul
  Ret: 6.5%
  WBC: 54.6 x10_2/uL
  KIDNEY_L: 1 g
  KIDNEY_R: 1 g
  KIDNEY_TOTAL: 1.9 g
  LIVER: 8.3 g
  A/G: 2.2
  ALP: 1073.2 IU/L
  ALT: 21.4 IU/L
  AST: 54.8 IU/L
  BUN: 11.4 mg/dL
  CRE: 0.5 mg/dL
  Ca: 11.4 mg/dL
  Cl: 108 meq/L
  DBIL: 0.01 mg/dL
  GLC: 170.2 mg/dL
  IP: 8.9 mg/dL
  K: 4.1 meq/L
  LDH: 91.2 IU/L
  Na: 140.2 meq/L
  PL: 138.4 mg/dL
  RALB: 4 g/dL
  TBIL: 0.04 mg/dL
  TC: 95.6 mg/dL
  TG: 42.6 mg/dL
  TP: 5.9 g/dL
  gamma-GTP: 0 IU/L
